Laboratory results: ChEMBL document CHEMBL4507269, “Data for DCP probe BAY-386” (2021)

Key:
[1] = target: Mitogen-activated protein kinase kinase kinase 4 (Homo sapiens) (UniProt Q9Y6R4); settings: Compound concentration 1000.0 nM
[2] = target: Phosphorylase b kinase regulatory subunit alpha, liver isoform (Homo sapiens) (UniProt P46019); settings: Compound concentration 1000.0 nM
[3] = target: Homeodomain-interacting protein kinase 2 (Homo sapiens) (UniProt Q9H2X6); settings: Compound concentration 1000.0 nM
[4] = target: Mitogen-activated protein kinase kinase kinase kinase 1 (Homo sapiens) (UniProt Q92918); settings: Compound concentration 1000.0 nM
[5] = target: Activin receptor type-1 (Homo sapiens) (UniProt Q04771); settings: Compound concentration 1000.0 nM
[6] = target: T1, Adenosine receptor A3 (Homo sapiens) (UniProt P0DMS8); assay: A3 (h) Eurofins-Cerep Cellular and Nuclear Receptor Functional Assays; settings: Compound concentration 10.0 uM
T1 sequence (whole entry): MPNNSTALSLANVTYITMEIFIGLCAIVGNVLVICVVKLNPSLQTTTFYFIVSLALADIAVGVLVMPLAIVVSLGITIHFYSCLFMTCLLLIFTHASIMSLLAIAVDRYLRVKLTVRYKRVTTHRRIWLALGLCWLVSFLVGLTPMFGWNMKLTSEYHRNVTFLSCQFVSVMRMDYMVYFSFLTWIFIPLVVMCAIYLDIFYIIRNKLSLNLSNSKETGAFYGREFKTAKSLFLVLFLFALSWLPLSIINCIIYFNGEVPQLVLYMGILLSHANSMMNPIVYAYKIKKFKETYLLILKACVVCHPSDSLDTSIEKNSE

[7] = target: Melanocortin receptor 4 (Homo sapiens) (UniProt P32245); assay: MC4 (h) Eurofins-Cerep Cellular and Nuclear Receptor Functional Assays; settings: Compound concentration 10.0 uM
Melanocortin receptor 4 (Homo sapiens), sequence (P32245 whole entry): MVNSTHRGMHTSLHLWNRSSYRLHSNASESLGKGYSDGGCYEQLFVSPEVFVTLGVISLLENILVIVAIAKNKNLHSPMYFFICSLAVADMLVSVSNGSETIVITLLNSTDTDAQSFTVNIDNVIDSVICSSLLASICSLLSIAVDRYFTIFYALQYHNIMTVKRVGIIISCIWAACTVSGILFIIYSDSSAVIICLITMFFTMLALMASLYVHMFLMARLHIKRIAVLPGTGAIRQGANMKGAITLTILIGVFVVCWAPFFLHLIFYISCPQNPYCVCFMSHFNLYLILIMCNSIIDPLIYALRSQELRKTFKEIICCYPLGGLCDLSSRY

[8] = target: Serine/threonine-protein kinase D1 (Homo sapiens) (UniProt Q15139); settings: Compound concentration 1000.0 nM
[9] = target: Mast/stem cell growth factor receptor Kit (Homo sapiens) (UniProt P10721); settings: Compound concentration 1000.0 nM
[10] = target: Mitogen-activated protein kinase kinase kinase 12 (Homo sapiens) (UniProt Q12852); settings: Compound concentration 1000.0 nM
[11] = target: GABA-A receptor; anion channel (Rattus norvegicus) (UniProt O09028+P15431+P18506+P18508+P19969+P20236+P23574+P23576+P28471+P28473+P30191+P62813+P63079+P63138+Q91ZM7+Q9ES14); settings: Compound concentration 10.0 uM
[12] = target: Serine/threonine-protein kinase mTOR (Homo sapiens) (UniProt P42345); settings: Compound concentration 1000.0 nM
[13] = target: Rho-associated protein kinase 1 (Homo sapiens) (UniProt Q13464); settings: Compound concentration 1000.0 nM
[14] = test system: Epidermal growth factor receptor (Homo sapiens), P00533 [L861Q]; settings: Compound concentration 1000.0 nM
[15] = target: Mitogen-activated protein kinase kinase kinase kinase 3 (Homo sapiens) (UniProt Q8IVH8); settings: Compound concentration 1000.0 nM
[16] = target: Kappa-type opioid receptor (Homo sapiens) (UniProt P41145); settings: Compound concentration 10.0 uM
[17] = target: Mitogen-activated protein kinase kinase kinase 3 (Homo sapiens) (UniProt Q99759); settings: Compound concentration 1000.0 nM
Mitogen-activated protein kinase kinase kinase 3 (Homo sapiens), sequence (Q99759 whole entry): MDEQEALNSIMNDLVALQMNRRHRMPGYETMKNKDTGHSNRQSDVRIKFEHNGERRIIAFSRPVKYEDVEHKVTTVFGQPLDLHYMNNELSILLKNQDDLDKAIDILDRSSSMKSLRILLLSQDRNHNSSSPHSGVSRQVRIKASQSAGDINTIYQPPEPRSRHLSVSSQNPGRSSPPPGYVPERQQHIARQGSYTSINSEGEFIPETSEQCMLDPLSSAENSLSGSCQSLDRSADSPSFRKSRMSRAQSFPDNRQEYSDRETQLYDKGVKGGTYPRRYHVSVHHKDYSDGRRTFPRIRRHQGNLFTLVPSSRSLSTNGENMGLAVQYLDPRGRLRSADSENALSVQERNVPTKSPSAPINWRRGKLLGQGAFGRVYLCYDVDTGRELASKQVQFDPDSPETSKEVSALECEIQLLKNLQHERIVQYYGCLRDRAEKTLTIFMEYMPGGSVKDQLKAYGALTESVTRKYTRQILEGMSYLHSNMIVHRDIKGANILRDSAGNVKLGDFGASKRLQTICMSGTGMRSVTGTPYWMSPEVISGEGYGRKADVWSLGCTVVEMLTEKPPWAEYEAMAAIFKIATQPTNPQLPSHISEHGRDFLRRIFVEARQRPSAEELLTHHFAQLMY

[18] = target: BDNF/NT-3 growth factors receptor (Homo sapiens) (UniProt Q16620); settings: Compound concentration 1000.0 nM
BDNF/NT-3 growth factors receptor (Homo sapiens), sequence (Q16620 32-822 limits assumed): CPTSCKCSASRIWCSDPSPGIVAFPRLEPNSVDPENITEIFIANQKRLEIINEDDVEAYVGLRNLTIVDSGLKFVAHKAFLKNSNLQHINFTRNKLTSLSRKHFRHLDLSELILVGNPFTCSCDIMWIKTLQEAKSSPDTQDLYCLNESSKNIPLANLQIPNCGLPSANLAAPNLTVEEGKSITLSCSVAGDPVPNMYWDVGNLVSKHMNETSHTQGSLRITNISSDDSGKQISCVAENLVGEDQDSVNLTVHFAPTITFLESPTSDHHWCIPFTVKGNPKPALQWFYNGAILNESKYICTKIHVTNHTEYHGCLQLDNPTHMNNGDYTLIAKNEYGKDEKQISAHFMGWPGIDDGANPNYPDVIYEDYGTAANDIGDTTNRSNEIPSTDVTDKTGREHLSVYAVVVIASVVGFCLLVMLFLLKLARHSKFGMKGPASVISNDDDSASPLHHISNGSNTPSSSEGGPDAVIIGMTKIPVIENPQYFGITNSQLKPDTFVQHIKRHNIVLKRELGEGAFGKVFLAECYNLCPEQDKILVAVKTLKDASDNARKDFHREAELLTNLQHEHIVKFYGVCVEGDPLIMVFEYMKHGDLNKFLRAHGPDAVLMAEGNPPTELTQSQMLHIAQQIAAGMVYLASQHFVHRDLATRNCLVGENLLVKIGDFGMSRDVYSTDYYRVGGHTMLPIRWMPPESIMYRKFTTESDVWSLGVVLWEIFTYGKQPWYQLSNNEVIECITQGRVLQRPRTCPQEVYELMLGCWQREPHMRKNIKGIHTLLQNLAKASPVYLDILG

[19] = test system: Receptor-type tyrosine-protein kinase FLT3 (Homo sapiens), P36888 [N841I]; settings: Compound concentration 1000.0 nM
[20] = target: Dual specificity protein kinase TTK (Homo sapiens) (UniProt P33981); settings: Compound concentration 1000.0 nM
[21] = target: Cyclin-dependent kinase 19 (Homo sapiens) (UniProt Q9BWU1); settings: Compound concentration 1000.0 nM
[22] = target: Ephrin type-A receptor 2 (Homo sapiens) (UniProt P29317); settings: Compound concentration 1000.0 nM
[23] = target: Serine/threonine-protein kinase 25 (Homo sapiens) (UniProt O00506); settings: Compound concentration 1000.0 nM
Serine/threonine-protein kinase 25 (Homo sapiens), sequence (O00506 whole entry, looked up): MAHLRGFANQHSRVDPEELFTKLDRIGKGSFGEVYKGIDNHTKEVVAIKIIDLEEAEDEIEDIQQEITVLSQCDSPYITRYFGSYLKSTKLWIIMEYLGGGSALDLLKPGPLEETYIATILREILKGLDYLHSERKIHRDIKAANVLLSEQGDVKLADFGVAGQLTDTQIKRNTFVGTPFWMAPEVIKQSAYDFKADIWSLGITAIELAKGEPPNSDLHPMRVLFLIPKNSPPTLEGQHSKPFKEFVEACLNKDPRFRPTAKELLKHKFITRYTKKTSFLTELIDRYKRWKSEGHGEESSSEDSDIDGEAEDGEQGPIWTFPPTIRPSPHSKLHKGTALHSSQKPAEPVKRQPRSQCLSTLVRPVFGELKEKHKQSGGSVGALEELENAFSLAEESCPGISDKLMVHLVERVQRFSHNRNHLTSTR

[24] = target: Ephrin type-B receptor 2 (Homo sapiens) (UniProt P29323); settings: Compound concentration 1000.0 nM
[25] = target: RAC-gamma serine/threonine-protein kinase (Homo sapiens) (UniProt Q9Y243); settings: Compound concentration 1000.0 nM
[26] = target: Ephrin type-A receptor 8 (Homo sapiens) (UniProt P29322); settings: Compound concentration 1000.0 nM
[27] = target: Proteinase-activated receptor 4 (Homo sapiens, UniProt Q96RI0); assay: Functional cellular assay (HEK cells) (F2RL3)
[28] = target: Phosphorylase b kinase gamma catalytic chain, skeletal muscle/heart isoform (Homo sapiens) (UniProt Q16816); settings: Compound concentration 1000.0 nM
Phosphorylase b kinase gamma catalytic chain, skeletal muscle/heart isoform (Homo sapiens), sequence (Q16816 whole entry, looked up, canonical isoform): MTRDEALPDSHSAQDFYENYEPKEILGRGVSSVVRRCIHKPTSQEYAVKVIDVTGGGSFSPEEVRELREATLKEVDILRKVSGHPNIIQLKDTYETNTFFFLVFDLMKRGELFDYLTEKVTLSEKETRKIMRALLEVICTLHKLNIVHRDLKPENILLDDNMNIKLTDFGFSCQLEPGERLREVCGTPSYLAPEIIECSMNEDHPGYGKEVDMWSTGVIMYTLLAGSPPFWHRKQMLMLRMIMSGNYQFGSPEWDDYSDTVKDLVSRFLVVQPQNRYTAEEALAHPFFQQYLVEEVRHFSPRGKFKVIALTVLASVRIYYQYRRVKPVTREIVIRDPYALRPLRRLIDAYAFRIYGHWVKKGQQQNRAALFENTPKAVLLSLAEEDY

[29] = target: D(2) dopamine receptor (Homo sapiens) (UniProt P14416); assay: D2s (h) Eurofins-Cerep Cellular and Nuclear Receptor Functional Assays; settings: Compound concentration 10.0 uM
D(2) dopamine receptor (Homo sapiens), sequence (P14416 whole entry): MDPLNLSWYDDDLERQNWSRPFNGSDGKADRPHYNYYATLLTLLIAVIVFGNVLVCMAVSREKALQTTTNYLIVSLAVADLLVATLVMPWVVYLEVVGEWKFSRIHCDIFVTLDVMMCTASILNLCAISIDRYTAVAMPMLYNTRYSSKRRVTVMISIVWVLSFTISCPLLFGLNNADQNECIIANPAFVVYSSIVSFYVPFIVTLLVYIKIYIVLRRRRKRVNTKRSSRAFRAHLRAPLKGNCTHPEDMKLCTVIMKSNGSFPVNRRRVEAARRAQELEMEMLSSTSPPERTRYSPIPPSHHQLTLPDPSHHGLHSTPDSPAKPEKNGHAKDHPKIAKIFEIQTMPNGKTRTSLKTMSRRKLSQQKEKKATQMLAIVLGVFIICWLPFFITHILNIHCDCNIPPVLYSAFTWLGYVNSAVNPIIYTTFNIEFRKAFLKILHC

[30] = target: 5-hydroxytryptamine receptor 7 (Homo sapiens) (UniProt P34969); settings: Compound concentration 10.0 uM
5-hydroxytryptamine receptor 7 (Homo sapiens), sequence (P34969 whole entry): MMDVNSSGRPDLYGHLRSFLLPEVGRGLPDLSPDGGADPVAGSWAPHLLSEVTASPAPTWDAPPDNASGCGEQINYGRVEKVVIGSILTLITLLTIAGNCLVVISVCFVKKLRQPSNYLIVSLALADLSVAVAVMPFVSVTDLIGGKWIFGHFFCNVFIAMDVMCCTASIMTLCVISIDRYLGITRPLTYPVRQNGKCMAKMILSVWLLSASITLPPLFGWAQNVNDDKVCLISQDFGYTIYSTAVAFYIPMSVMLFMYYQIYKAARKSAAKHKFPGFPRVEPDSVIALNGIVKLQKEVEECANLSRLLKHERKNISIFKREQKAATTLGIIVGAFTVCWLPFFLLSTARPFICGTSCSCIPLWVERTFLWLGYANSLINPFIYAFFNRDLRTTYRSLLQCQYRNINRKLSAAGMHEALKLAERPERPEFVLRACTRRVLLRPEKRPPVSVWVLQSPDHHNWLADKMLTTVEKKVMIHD

[31] = target: Tyrosine-protein kinase Lyn (Homo sapiens) (UniProt P07948); settings: Compound concentration 1000.0 nM
[32] = target: Activated CDC42 kinase 1 (Homo sapiens) (UniProt Q07912); settings: Compound concentration 1000.0 nM
[33] = target: Serine/threonine-protein kinase ULK2 (Homo sapiens) (UniProt Q8IYT8); settings: Compound concentration 1000.0 nM
[34] = target: Mitogen-activated protein kinase 9 (Homo sapiens) (UniProt P45984); settings: Compound concentration 1000.0 nM
[35] = target: Phosphatidylinositol 3-kinase C2 domain-containing subunit gamma (Homo sapiens) (UniProt O75747); settings: Compound concentration 1000.0 nM
[36] = target: Serine/threonine-protein kinase MRCK gamma (Homo sapiens) (UniProt Q6DT37); settings: Compound concentration 1000.0 nM
[37] = target: Calcium/calmodulin-dependent protein kinase type 1 (Homo sapiens) (UniProt Q14012); settings: Compound concentration 1000.0 nM
[38] = target: Casein kinase I isoform epsilon (Homo sapiens) (UniProt P49674); settings: Compound concentration 1000.0 nM
[39] = target: 1-phosphatidylinositol 3-phosphate 5-kinase (Homo sapiens) (UniProt Q9Y2I7); settings: Compound concentration 1000.0 nM

Phosphorylase b kinase regulatory subunit alpha, liver isoform (Homo sapiens), sequence (P46019 whole entry, canonical isoform): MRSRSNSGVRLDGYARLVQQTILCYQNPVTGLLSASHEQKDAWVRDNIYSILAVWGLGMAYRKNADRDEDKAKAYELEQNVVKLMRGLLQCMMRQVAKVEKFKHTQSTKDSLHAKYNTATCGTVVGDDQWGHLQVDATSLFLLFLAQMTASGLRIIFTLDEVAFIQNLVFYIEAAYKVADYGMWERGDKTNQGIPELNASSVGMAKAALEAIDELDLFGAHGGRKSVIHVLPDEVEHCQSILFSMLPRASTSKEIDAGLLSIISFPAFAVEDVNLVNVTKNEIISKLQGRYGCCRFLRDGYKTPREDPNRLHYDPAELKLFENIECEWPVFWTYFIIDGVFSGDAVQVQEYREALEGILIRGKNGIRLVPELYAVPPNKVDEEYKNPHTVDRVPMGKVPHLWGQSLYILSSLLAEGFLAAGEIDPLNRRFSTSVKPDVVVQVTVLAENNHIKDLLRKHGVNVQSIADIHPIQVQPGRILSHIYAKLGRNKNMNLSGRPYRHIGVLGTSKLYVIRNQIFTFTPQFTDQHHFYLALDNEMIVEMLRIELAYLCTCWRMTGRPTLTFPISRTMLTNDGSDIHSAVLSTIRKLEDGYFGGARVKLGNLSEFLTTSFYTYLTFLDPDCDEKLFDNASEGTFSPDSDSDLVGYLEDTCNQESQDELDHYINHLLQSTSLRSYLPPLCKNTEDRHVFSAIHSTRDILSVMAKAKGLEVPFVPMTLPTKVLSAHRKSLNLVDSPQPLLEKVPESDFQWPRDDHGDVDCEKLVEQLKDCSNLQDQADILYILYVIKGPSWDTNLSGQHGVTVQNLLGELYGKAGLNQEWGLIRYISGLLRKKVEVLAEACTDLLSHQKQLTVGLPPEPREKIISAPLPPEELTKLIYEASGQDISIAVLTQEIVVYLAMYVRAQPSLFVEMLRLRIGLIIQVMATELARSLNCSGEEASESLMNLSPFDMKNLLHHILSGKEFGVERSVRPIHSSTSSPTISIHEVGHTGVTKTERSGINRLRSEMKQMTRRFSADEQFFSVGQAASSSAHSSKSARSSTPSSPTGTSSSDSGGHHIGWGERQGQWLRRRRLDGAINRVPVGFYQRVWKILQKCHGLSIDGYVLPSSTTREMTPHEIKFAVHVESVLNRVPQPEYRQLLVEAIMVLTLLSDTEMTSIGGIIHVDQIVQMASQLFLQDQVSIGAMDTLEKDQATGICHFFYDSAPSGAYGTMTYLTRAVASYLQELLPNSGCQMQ

Work on `O=C(N1CCS(=O)(=O)CC1)N1C[C@H](c2ccc(OC(F)(F)F)cc2)C[C@H](c2nc(C3CC3)no2)C1` [BAY-386] yielded a residual activity [1] of 83%, a residual activity [2] of 100% and a residual activity [3] of 100%. For the same molecule, the residual activity [4] was 100%, the residual activity [5] was 100% and the % Inhibition of Control Agonist Response (Mean n=2) [6] was -13.1%. For the same molecule, the % of Control Agonist Response (Mean n=2) [6] was 2.5%, the % Inhibition of Control Agonist Response (Mean n=2) [7] was -8.1% and the % of Control Agonist Response (Mean n=2) [7] was -1.2%. For the same molecule, the residual activity [8] was 100%, the residual activity [9] was 100% and the residual activity [10] was 0%. The inhibition [11] was -7.39%, the residual activity [12] was 100% and the residual activity [13] was 94%. It also gave a residual activity [14] of 68%, a residual activity [15] of 100% and an inhibition [16] of 1.29%. The residual activity [17] was 100%, the residual activity [18] was 94% and the residual activity [19] was 100%. For the same molecule, the residual activity [20] was 82%, the residual activity [21] was 100% and the residual activity [22] was 100%. For the same molecule, the residual activity [23] was 93%, the residual activity [24] was 100% and the residual activity [25] was 100%. The residual activity [26] was 100%, the IC50 [27] was > 10 µM (not active) and the residual activity [28] was 94%. The % Inhibition of Control Agonist Response (Mean n=2) [29] was 6.6%, the % of Control Agonist Response (Mean n=2) [29] was 4% and the inhibition [30] was -0.77%. It also gave a residual activity [31] of 85%, a residual activity [32] of 97% and a residual activity [33] of 75%. For the same molecule, the residual activity [34] was 84%, the residual activity [35] was 93% and the residual activity [36] was 100%. It also gave a residual activity [37] of 100%, a residual activity [38] of 100% and a residual activity [39] of 100%.

With `Cc1noc([C@H]2C[C@@H](c3ccc(C(F)(F)F)cc3)CN(C(=O)N3CCS(=O)(=O)C3)C2)n1` [BAY-448] the residual activity [1] was 72%, the residual activity [2] was 100% and the residual activity [3] was 100%. It also gave a residual activity [4] of 100%, a residual activity [5] of 100% and a % Inhibition of Control Agonist Response (Mean n=2) [6] of 12.2%. It also gave a % of Control Agonist Response (Mean n=2) [6] of 19.2%, a % Inhibition of Control Agonist Response (Mean n=2) [7] of 14.3% and a % of Control Agonist Response (Mean n=2) [7] of -1.8%. The residual activity [8] was 100%, the residual activity [9] was 84% and the residual activity [10] was 92%. The inhibition [11] was 3.61%, the residual activity [12] was 92% and the residual activity [13] was 100%. For the same molecule, the residual activity [14] was 78%, the residual activity [15] was 100% and the inhibition [16] was 7.69%. The residual activity [17] was 84%, the residual activity [18] was 83% and the residual activity [19] was 100%. It also gave a residual activity [20] of 100%, a residual activity [21] of 100% and a residual activity [22] of 100%. It also gave a residual activity [23] of 89%, a residual activity [24] of 100% and a residual activity [25] of 100%. The residual activity [26] was 100%, the IC50 [27] was > 5 µM (not active) and the residual activity [28] was 100%. The % Inhibition of Control Agonist Response (Mean n=2) [29] was 8.6%, the % of Control Agonist Response (Mean n=2) [29] was 3.1% and the inhibition [30] was 21.8%. For the same molecule, the residual activity [31] was 100%, the residual activity [32] was 100% and the residual activity [33] was 100%. For the same molecule, the residual activity [34] was 99%, the residual activity [35] was 90% and the residual activity [36] was 100%. It also gave a residual activity [37] of 100%, a residual activity [38] of 100% and a residual activity [39] of 100%.
